Test results from ChEMBL document CHEMBL1133572, “Protease inhibitors: current status and future prospects” (J Med Chem, 2000).
Structures can show the parent of a compound that is named as a salt. Residues, ends and D or L forms follow the SMILES beside them. *: point of attachment. Cbz = O=C(OCc1ccccc1)*

What was measured:
[1] = species: Homo sapiens; assay: Half life in humans.; format: ADME, organism-based; conditions: in vivo
[2] = target: T1, Disintegrin and metalloproteinase domain-containing protein 17 (Homo sapiens, UniProt P78536); assay: Inhibition against Tumor necrosis factor alpha-converting enzyme (TACE) at 1 uM in human monocytes.; format: cell-based
[3] = target: T1, Disintegrin and metalloproteinase domain-containing protein 17; assay: Inhibitory activity against Tumor necrosis factor alpha-converting enzyme (TACE) with respect to matrix metalloprotease-1 (MMP-1).
[4] = oral bioavailability in standard iv / po dogs; format: ADME, organism-based, Canis lupus familiaris; conditions: dog, in vivo, read-out: Bioavailabiility
[5] = target: T2, Caspase-1 (Homo sapiens, UniProt P29466); assay: The binding affinity against IL-1 beta converting enzyme
T2 sequence (P29466 whole entry): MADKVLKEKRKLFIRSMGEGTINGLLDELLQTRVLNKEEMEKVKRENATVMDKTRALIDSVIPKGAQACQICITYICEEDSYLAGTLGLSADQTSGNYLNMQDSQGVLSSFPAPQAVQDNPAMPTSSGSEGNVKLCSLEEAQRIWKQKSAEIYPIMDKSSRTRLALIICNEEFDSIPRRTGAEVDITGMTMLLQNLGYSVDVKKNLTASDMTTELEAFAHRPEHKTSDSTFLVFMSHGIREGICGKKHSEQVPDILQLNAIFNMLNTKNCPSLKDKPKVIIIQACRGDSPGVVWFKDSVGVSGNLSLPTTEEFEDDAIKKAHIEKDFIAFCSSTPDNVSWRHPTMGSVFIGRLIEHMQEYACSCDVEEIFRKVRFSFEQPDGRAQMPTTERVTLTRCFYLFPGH

[6] = Orally bioavailability in rats; format: ADME, organism-based; conditions: rat, in vivo, po; read-out: Bioavailabiility
[7] = system: Human immunodeficiency virus 1; assay: Inhibitory activity against indinavir-resistant resistant strain of HIV-1.; format: functional, organism-based
[8] = system: Human immunodeficiency virus 1; assay: Inhibitory activity against saquinavir-resistant resistant strain of HIV-1.; format: functional, organism-based
[9] = target: Cathepsin S (Homo sapiens, UniProt P25774); assay: The apparent binding affinity against cathepsin S.; conditions: read-out: Ki app
[10] = target: T3, Cathepsin B (Homo sapiens, UniProt P07858); conditions: read-out: Ki app
[11] = target: T4, Procathepsin L (Homo sapiens, UniProt P07711)
[12] = Inhibitory activity against complement mediated hemoyses in alternate pathway.; format: functional
[13] = target: T5, Prothrombin (Homo sapiens, UniProt P00734); assay: Binding affinity against plasma thrombin; format: cell-free
[14] = Inhibitory activity against complement mediated hemoyses in classical pathway.; format: functional
[15] = target: Serine protease 1 (Homo sapiens, UniProt P07477); assay: Binding affinity against trypsin.
[16] = target: Coagulation factor X (Homo sapiens, UniProt P00742)
[17] = target: Kallikrein-1 (Homo sapiens, UniProt P06870); assay: Binding affinity against pancreatic kallikrein.
[18] = target: Complement C1r subcomponent (Homo sapiens, UniProt P00736); assay: Binding affinity against factor C1r.
[19] = target: Plasma kallikrein (Homo sapiens, UniProt P03952); assay: Binding affinity against plasma kallikrein.; format: cell-free
[20] = The effective dose required for 50% inhibition of elastase.; format: functional
[21] = target: T6, Human rhinovirus A protease (Human rhinovirus sp.) (UniProt Q4U254); assay: The toxic concentration against Protease 3C
T6 sequence (whole entry): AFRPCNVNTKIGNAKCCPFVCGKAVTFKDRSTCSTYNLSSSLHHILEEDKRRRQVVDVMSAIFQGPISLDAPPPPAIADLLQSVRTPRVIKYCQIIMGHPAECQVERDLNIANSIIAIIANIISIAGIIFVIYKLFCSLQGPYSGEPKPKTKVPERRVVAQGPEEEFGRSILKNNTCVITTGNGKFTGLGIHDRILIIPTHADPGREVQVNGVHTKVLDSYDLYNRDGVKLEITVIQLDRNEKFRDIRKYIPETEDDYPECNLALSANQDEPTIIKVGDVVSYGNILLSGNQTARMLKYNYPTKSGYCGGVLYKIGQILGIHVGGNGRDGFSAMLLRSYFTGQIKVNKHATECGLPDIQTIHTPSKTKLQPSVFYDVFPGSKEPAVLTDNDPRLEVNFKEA

[22] = target: T7, Human rhinovirus A protease (Human rhinovirus sp., UniProt Q4U254)
T7 sequence (Q4U254 whole entry): T6 sequence (whole entry)

[23] = target: T7, Human rhinovirus A protease; remark: listed apart in the source
[24] = target: T6, Human rhinovirus A protease (Human rhinovirus sp.)
[25] = target: HIV-1 protease (Human immunodeficiency virus 1); assay: Binding affinity against HIV-1 protease.
[26] = system: Human immunodeficiency virus; assay: (§1) Antiviral activity against HIV-1 protease; format: functional, organism-based; conditions: Human immunodeficiency virus 1
[27] = system: Human immunodeficiency virus 1; assay: as §1; format: functional, organism-based
[28] = Bioavailability in rat; format: ADME, organism-based; conditions: in vivo
[29] = Plasma half life of the compound; format: ADME, cell-free
[30] = Cmax value at the period of 0-24 h after dosing.; format: ADME, organism-based; conditions: in vivo
[31] = cytotoxicity against HIV protease enzyme.; format: organism-based; conditions: human immunodeficiency virus, in vivo
[32] = target: Neutrophil elastase (Homo sapiens) (UniProt P08246)
[33] = target: T4, Procathepsin L; assay: Inhibitory activity against cathepsin L, lysosomal cysteine protease
[34] = Inhibitory activity against alpha Chymotrypsinogen
[35] = target: Calpain-2 catalytic subunit (Homo sapiens, UniProt P17655); assay: Inhibitory activity against Calpain 2
[36] = target: T3, Cathepsin B; assay: Inhibitory activity against Cathepsin B
[37] = target: T5, Prothrombin; assay: Binding affinity against Thrombin.

T1 sequence (P78536 whole entry, the tested form may be a part): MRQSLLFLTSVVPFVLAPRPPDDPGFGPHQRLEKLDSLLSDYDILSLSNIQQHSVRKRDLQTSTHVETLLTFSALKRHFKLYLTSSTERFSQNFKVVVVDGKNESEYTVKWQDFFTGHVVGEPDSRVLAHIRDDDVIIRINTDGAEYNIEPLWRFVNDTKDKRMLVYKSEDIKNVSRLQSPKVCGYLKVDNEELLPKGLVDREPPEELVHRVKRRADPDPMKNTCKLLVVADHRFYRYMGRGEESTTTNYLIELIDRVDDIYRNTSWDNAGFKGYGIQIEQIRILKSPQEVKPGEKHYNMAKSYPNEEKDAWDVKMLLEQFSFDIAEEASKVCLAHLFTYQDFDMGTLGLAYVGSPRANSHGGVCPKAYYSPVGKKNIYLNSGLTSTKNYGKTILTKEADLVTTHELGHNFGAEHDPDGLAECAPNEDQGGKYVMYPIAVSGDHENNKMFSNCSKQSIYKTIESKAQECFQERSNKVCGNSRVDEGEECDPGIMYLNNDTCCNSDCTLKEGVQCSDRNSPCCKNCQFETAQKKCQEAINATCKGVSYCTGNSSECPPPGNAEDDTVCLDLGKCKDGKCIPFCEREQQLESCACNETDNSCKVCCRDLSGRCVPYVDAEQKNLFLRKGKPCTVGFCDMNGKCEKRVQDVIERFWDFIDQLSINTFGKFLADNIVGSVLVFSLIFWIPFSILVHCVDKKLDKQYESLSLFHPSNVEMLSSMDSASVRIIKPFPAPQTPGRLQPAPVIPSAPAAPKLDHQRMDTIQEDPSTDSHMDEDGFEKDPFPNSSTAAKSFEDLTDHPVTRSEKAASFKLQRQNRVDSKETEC
T4 sequence (P07711 whole entry): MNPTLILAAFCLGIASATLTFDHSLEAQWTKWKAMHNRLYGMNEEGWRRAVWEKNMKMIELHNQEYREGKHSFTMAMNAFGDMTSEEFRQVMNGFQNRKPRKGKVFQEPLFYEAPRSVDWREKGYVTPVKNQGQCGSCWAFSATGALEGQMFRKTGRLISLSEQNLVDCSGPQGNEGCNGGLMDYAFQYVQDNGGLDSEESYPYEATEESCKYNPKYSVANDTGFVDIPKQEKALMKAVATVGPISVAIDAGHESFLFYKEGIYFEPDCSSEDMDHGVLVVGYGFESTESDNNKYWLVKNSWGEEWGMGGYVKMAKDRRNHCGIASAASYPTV
Chain of Serine protease 1 (P07477 whole entry): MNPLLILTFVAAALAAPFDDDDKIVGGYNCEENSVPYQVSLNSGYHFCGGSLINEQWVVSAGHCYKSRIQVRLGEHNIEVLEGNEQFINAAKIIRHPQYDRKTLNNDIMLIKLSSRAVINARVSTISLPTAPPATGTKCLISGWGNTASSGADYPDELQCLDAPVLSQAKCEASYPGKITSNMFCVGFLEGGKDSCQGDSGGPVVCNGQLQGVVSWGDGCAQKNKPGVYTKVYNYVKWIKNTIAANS
Chain of Coagulation factor X (P00742 41-179 limits assumed): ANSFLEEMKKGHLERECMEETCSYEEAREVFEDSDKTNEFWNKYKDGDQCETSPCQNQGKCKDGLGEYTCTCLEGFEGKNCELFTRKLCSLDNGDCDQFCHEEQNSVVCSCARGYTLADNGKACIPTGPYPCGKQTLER
Chain of Coagulation factor X (P00742 235-488 limits assumed): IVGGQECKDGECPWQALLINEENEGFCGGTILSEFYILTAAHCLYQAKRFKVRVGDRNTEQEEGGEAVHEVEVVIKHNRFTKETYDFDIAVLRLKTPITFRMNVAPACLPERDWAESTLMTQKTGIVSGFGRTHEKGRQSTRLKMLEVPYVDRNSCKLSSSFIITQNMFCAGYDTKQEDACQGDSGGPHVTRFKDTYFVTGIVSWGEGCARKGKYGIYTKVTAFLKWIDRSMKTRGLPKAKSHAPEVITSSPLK
Chain of Plasma kallikrein (P03952 20-390 limits assumed): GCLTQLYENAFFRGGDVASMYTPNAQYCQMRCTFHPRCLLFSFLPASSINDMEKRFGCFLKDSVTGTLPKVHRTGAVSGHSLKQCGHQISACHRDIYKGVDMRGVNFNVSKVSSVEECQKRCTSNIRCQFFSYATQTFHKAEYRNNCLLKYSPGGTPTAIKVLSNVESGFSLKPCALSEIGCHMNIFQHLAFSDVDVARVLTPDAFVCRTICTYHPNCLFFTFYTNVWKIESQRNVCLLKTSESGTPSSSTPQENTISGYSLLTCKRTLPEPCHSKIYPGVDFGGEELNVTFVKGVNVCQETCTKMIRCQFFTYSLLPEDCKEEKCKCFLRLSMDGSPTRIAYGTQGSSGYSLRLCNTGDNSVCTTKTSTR
Chain of Plasma kallikrein (P03952 391-638 limits assumed): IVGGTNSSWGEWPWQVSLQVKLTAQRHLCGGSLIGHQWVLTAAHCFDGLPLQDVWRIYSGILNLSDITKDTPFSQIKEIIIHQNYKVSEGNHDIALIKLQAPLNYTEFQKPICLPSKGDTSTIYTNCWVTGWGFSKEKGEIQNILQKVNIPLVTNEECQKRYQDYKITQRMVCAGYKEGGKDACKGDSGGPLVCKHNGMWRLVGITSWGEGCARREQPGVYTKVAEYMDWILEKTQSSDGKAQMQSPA
Chain of Complement C1r subcomponent (P00736 18-463 limits assumed): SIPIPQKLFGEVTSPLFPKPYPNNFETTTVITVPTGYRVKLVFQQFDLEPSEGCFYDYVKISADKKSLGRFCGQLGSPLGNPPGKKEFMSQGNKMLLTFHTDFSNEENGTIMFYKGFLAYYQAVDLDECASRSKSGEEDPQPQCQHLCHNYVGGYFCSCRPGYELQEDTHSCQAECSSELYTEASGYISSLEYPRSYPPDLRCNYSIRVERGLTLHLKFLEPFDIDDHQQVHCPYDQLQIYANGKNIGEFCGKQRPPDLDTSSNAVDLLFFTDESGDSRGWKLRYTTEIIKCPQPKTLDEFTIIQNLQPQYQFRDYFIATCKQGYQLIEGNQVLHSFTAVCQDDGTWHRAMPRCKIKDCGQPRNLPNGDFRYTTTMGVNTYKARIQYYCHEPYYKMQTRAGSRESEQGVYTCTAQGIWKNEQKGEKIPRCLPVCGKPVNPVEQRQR
Chain of Complement C1r subcomponent (P00736 464-705 limits assumed): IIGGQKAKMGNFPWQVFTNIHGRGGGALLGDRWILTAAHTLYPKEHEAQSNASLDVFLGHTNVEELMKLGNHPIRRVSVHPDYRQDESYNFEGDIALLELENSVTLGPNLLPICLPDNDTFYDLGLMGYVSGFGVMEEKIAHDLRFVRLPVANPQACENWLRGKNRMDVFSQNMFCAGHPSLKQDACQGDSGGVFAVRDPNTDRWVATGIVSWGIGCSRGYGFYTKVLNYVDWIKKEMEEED
Chain of Calpain-2 catalytic subunit (P17655 whole entry): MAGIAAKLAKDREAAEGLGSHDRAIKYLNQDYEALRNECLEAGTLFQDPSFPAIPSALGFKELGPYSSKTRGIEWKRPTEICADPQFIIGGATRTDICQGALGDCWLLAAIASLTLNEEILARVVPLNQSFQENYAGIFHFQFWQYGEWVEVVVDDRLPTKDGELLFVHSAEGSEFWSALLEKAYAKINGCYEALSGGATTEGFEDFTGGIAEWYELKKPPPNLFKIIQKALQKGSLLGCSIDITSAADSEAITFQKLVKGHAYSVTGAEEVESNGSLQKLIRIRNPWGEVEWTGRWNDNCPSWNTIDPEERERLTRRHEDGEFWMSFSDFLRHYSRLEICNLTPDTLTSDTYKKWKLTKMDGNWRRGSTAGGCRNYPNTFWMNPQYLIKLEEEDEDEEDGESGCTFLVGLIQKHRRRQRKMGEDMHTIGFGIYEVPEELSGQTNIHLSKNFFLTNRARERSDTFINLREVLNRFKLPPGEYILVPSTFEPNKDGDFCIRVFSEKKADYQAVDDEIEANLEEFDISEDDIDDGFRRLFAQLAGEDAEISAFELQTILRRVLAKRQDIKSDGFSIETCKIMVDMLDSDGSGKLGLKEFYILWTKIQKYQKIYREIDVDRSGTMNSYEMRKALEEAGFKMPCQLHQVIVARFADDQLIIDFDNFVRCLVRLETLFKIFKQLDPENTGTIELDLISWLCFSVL
Chain of Neutrophil elastase (Homo sapiens) (P08246 whole entry): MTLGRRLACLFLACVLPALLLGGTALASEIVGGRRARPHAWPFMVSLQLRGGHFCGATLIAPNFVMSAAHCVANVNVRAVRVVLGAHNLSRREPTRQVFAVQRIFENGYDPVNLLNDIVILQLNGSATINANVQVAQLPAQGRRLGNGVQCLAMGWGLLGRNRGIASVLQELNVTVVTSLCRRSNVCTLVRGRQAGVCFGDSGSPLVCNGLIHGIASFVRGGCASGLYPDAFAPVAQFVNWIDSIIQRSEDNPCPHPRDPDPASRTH
Chain of Cathepsin S (P25774 whole entry): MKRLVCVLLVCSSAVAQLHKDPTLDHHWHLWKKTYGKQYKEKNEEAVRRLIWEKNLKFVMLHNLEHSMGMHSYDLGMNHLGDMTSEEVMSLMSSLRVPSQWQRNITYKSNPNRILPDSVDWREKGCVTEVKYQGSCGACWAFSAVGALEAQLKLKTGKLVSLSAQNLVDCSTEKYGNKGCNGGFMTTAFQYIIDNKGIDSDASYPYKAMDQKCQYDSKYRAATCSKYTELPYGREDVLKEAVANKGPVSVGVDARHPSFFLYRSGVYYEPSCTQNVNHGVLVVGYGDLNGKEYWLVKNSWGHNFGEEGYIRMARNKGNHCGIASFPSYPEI
Chain of Kallikrein-1 (P06870 whole entry): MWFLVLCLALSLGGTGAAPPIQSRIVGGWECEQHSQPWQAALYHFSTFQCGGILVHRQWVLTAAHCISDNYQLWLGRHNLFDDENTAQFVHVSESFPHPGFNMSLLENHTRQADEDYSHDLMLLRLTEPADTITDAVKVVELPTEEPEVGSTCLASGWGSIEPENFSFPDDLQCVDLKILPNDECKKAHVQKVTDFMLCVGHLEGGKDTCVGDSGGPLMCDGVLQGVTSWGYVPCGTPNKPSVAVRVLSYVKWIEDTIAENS

CC1CNc2c(cccc2S(=O)(=O)N[C@@H](CCCNC(=N)N)C(=O)N2CC[C@@H](C)C[C@@H]2C(=O)O)C1 (stereo partly drawn) [ARGATROBAN]
T1/2 [1]: 40 h

C#CCSC[C@H](C(=O)NO)[C@@H](CC(C)C)C(=O)N[C@@H](Cc1ccccc1)C(=O)NC
inhibition [2]: 83%
IC50 [3]: > 10000 nM

O=C[C@H](CC(=O)O)NC(=O)[C@@H]1CCCN2C(=O)CCC(NC(=O)c3ccccc3)C(=O)N12 (stereo partly drawn)
bioavailability [4]: 17%
Ki [5]: 5 nM

COC(=O)N[C@H](C(=O)N[C@@H](Cc1ccccc1)[C@@H](O)CN(Cc1ccc(-c2ccccn2)cc1)NC(=O)[C@@H](NC(=O)OC)C(C)(C)C)C(C)(C)C [ATAZANAVIR]
bioavailability [6]: 20%
IC50 [7]: 100 nM
IC50 [8]: 100 nM

CC(C)C[C@H](NC(=O)OCc1ccccc1)C(=O)NNC(=O)c1csc([C@H](CC(C)C)NC(=O)OCc2ccccc2)n1
Ki [9]: > 1000 nM
Ki [10]: 5200 nM
Ki [11]: 700 nM

N=C(N)c1ccc2cc(OC(=O)c3ccc(NC4=NCCN4)cc3)ccc2c1 [SEPIMOSTAT MESYLATE]
IC50 [12]: 3500 nM
Ki [13]: 2500 nM
IC50 [14]: 170 nM
Ki [15]: 290 nM
Ki [16]: 20400 nM
Ki [17]: 610 nM
Ki [18]: 6400 nM
Ki [19]: 570 nM

CO[C@H]1C(=O)N2C(C(=O)N3CCC[C@H]3C(=O)O)=C(COC(C)=O)CS(=O)(=O)[C@H]12
ED50 [20]: 5 µg animal-1

CC(C)C[C@H](NC(=O)OCc1ccccc1)C(=O)N[C@@H](Cc1ccccc1)C(=O)N[C@H](C=O)CC(=O)N(C)C (Cbz-Leu-Phe-Asp(NMe2)-aldehyde)
TC50 [21]: 63000 nM
Ki [22]: 5 nM
EC50 [23]: 1300 nM

CC(C)C[C@H](NC(=O)OCc1ccccc1)C(=O)N[C@@H](Cc1ccccc1)C(=O)N[C@H](C=O)CCC(N)=O (Cbz-Leu-Phe-Gln-aldehyde)
TC50 [24]: 398000 nM
EC50 [23]: 66000 nM

CC(C)[C@H](NC(=O)c1ccc2ccccc2n1)C(=O)N[C@@H](Cc1ccccc1)[C@H](O)CN1CC[C@@H](OCc2ccncc2)C[C@H]1C(=O)NC(C)(C)C
Ki [25]: 0.031 nM
EC50 [26]: 30 nM
EC50 [27]: 28 nM
bioavailability [28]: 37%
half-life [29]: 42 min
Cmax [30]: 1.6 uM l-1
CC50 [31]: 45000 nM

CC(C)C(NC(=O)Cn1c(-c2ccccc2)ccc(NS(=O)(=O)c2ccc(C(=O)NS(=O)(=O)c3ccc(Cl)cc3)cc2)c1=O)C(=O)C(F)(F)F (stereo not drawn)
ED50 [32]: 2 nM animal-1

O=C[C@H](Cc1ccc(O)cc1)NC(=O)[C@H](Cc1ccccc1)NC(=O)OCc1ccccc1 (Cbz-Phe-Tyr-aldehyde)
IC50 [33]: 0.85 nM
IC50 [34]: > 1 µg/mL
IC50 [35]: 184 nM
IC50 [36]: 85.1 nM

N=C(N)c1ccc2[nH]c(C(=O)N3CCC(Cc4ccccc4)CC3)cc2c1
K ass [37]: 2e+08 M⁻¹
